# Patent US11434235B2, “Solid form of dihydropyrimidine compound and preparation method therefor and use thereof” (SICHUAN KELUN-BIOTECH BIOPHARMACEUTICAL CO., LTD., priority 2018, dated 2022)
# Key:
# [1] = target: hERG (Homo sapiens, UniProt Q12809); details: background statement, no test described; cited from earlier work
# [2] = DVS study (hygroscopicity) of the crystalline form A; format: physicochemical
# Description: The experimental conditions for the dynamic vapor sorption (DVS) were as follows: The detection was performed with DVS Intrinsic (SMS) at 25° C. in a cycle-DMDT mode. The hygroscopicity of a sample of the crystalline form A of the compound of Formula (I) was measured through dynamic vapor sorption (DVS): the hygroscopicity thereof was measured at 25° C., 10% humidity gradient in the range of 0%-90%-0%.
# [3] = test system: SD rats; test: Single-dose toxicity in SD rats; format: in vivo
# From the text: The mortar was washed with a 0.5% methyl cellulose (MC) solution with grinding, until there was no visible residue. The mixture was transferred to a calibrated container, and then diluted with a 0.5% methyl cellulose solution to the volume. The solution was stirred uniformly with a magnetic stirrer to obtain a suspension, which was used as the test sample.
# 4 groups (10 rats per group, half male and half female) were set in the single-dose toxicity test in SD rats, and they were the vehicle control group and the low-, medium-, and high-dose groups of the crystalline form A of the compound of Formula (I), respectively.
# [4] = test system: Beagle dogs; test: Single dose toxicity in Beagle dogs; format: in vivo
# Description: Formulation of the test sample: a required amount of a sample of the crystalline form A of Example 5 (the solvent used in the crystal preparation was isopropanol) was weighed and added to a mortar, polyethylene glycol-15 hydroxystearate (HS15) in an amount of 2.5% of the total volume was added, and the sample was evenly ground. The mortar was washed with a 0.5% methyl cellulose (MC) solution with grinding, until there was no visible residue. The mixture was transferred to a calibrated container, and then diluted with a 0.5% methyl cellulose solution to the volume. The solution was stirred uniformly with a magnetic stirrer to obtain a suspension, which was used as the test sample.
# 3 groups (4 dogs per group, half male and half female) were set in the single-dose toxicity test in Beagle dogs, and they were the vehicle control group and the low- and high-dose groups of the crystalline form A of the compound of Formula (I).
# [5] = Stability of the crystalline form A at a high temperature (XRPD); format: physicochemical; details: 7 days
# Description: (§1) X′Pert3 Powder diffractometer using Cu target radiation was employed, and the detection was performed at room temperature with Absolute scan. The detection range was 3.5° to 40° with a step size of 0.013° and a dwell time of 50 s, scan time: 1. A sample of the crystalline form A of the compound of Formula (I) was allowed to stand under vacuum at 60° C., and samples were taken on Day 2, 5 and 7, respectively, for XRPD detection.
# [6] = Determination of the solubility of the crystalline form A; format: physicochemical; details: 25±2° C., Chinese Pharmacopoeia 2015 terms
# Description: Test solvents: methanol, acetonitrile, ethanol, isopropanol, a 0.1 mol/L aqueous solution of hydrochloric acid and a 0.1 mol/L aqueous solution of sodium hydroxide. Test method: the investigation was conducted according to Item 15(2) of the General Notices in Volume IV of the Chinese Pharmacopoeia (2015 edition). An appropriate amount of a sample of the crystalline form A prepared in Example 5 (the solvent used in the crystal preparation was isopropanol) was weighed and added to a certain volume of the solvent at 25±2° C. The mixture was shaken strongly for 30 seconds at an interval of 5 minutes. […] It was considered to be completely soluble if none of the particles of the solute was observed.
# [7] = Determination of the log P value (Sirius T3, pH-metric medium log P); format: physicochemical; details: titration from low to high pH
# Description: The log P value of a sample of the crystalline form A prepared in Example 5 (the solvent used in the crystal preparation was isopropanol) was measured with the Sirius T3 instrument for physical and chemical profile determination. The Sirius log P test method (pH-metric medium log P) was employed, wherein the pH-metric medium log P determination mode was selected, and the titration order was from low to high pH.
# [8] = Stability of the crystalline form A at room temperature (XRPD); format: physicochemical; details: 15 days
# Description: as §1, with “stand” for “stand under vacuum”, “room temperature,” for “60° C.,”, “Day” for “Day 2,”, “15” for “7, respectively,”
# [9] = Pharmacokinetic experiment of the crystalline form A in rats; format: in vivo; details: both sexes, Sprague-Dawley (SD), rat, blood, 3 mg/kg
# From the text: Formulation of the test sample for intravenous administration: the sample of Example 5 (the solvent used in the crystal preparation was isopropanol) was taken and dissolved in 5% DMSO+5% Solutol (HS15)+90% normal saline, to obtain the test sample solution for intravenous administration;
# Formulation of the test sample for intragastric administration: the sample of Example 5 (the solvent used in the crystal preparation was isopropanol) was taken and suspended in 97.5% of 0.5% methyl cellulose (MC)+2.5% Solutol (HS15) to obtain a suspension, which was used as the test sample for intragastric administration.
# 12 SD rats were randomly divided into two groups, groups A and B (6 rats per group, half male and half female). The rats in Group A were each given a single intravenous injection of the sample drug; the rats in Group B were each given the sample drug through intragastric administration, and the dosages are both 3 mg/kg. The blood sampling time points for the intravenous and intragastric administration were before administration and 0.083, 0.25, 0.5, 1.0, 2.0, 4.0, 6.0, 8.0, 10, and 24 h after administration.
# [10] = Stability of the crystalline form A under grinding (XRPD); format: physicochemical; details: ground in a mortar for 5 minutes
# Description: as §1, with “ground” for “allowed to stand under vacuum”, “a constant speed in a mortar,” for “60° C.,”, “after the grinding was performed for 2 and” for “on Day 2,”, “minutes,” for “and 7,”
# [11] = po, SD rats, intragastric, single dose, n = 6
# [12] = SD rats, intravenous, single dose, n = 6
# Sequence of hERG (Q12809 whole entry): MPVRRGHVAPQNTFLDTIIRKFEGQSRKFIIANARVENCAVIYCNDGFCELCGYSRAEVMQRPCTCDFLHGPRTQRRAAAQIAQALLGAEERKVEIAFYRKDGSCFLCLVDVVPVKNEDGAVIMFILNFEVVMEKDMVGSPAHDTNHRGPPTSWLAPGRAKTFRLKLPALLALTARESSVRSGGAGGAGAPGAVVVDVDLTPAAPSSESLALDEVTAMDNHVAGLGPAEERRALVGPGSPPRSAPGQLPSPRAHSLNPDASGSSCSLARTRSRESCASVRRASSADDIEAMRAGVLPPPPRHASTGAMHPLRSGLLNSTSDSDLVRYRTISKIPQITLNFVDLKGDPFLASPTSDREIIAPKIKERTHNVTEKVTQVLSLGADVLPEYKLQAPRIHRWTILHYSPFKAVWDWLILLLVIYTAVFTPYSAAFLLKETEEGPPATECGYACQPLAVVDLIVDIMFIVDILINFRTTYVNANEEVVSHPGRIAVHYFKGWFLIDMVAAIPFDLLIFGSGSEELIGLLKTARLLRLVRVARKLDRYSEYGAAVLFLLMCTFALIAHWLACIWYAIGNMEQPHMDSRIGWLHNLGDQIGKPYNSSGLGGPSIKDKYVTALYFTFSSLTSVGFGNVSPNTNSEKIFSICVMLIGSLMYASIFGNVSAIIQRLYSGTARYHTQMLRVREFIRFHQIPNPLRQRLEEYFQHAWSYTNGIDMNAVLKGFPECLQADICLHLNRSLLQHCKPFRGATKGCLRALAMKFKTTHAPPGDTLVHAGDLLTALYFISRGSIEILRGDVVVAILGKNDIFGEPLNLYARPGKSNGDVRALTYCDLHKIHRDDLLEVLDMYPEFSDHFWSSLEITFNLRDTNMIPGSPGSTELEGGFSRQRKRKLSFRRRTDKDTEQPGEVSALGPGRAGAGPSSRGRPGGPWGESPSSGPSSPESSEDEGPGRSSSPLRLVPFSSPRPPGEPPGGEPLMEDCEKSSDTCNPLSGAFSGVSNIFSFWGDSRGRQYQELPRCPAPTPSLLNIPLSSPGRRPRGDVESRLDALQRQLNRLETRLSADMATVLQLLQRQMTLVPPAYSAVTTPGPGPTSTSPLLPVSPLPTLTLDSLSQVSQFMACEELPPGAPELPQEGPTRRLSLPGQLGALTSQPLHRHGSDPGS
compound,measurement,setting,value
"COC(=O)C1=C(CN2CCO[C@H](/C=C/C(=O)O)C2)NC(c2nccs2)=N[C@H]1c1ccc(F)cc1Cl [compound of Formula (I), (E)-3-((R)-4-(((R)-6-(2-chloro-4-fluorophenyl)-5-(methoxycarbonyl)-2-(thiazol-2-yl)-3,6-dihydropyrimidin-4-yl)methyl)morpholin-2-yl)acrylic acid]",cardiotoxicity,[1],no cardiotoxicity
"COC(=O)C1=C(CN2CCO[C@H](/C=C/C(=O)O)C2)NC(c2nccs2)=N[C@H]1c1ccc(F)cc1Cl [crystalline form A, (E)-3-((R)-4-(((R)-6-(2-chloro-4-fluorophenyl)-5-(methoxycarbonyl)-2-(thiazol-2-yl)-3,6-dihydropyrimidin-4-yl)methyl)morpholin-2-yl)acrylic acid]",weight increase by hygroscopy,"[2]; DVS, 25° C., 80% humidity",0.28%
same,hygroscopicity class (Chinese Pharmacopoeia 2015),[2]; weight increase within 0.2%-2%,slightly hygroscopic
same,abnormalities after 14 days,"[3]; intragastric single dose, condition, body weight, food intake, hematology, blood biochemistry, gross anatomy",no abnormalities were observed
same,"tolerability, single dose","[3]; intragastric, low-, medium-, high-dose groups, 14 days observation",well tolerated
same,"tolerability, single dose","[4]; Beagle dogs, intragastric, low- and high-dose groups, 14 days observation",well tolerated
same,abnormalities after 14 days,"[4]; dog, in vivo",no abnormalities were observed
same,crystalline form after standing under vacuum at 60° C. (XRPD),[5],did not change
same,solubility in 0.1 mol/L aqueous solution of hydrochloric acid,[6],sparingly soluble
same,solubility in 0.1 mol/L aqueous solution of sodium hydroxide,[6],sparingly soluble
same,solubility in acetonitrile,[6],soluble
same,solubility in ethanol,[6],soluble
same,solubility in isopropanol,[6],slightly soluble
same,solubility in methanol,[6],soluble
same,logP,[7],2.4 to 2.6
same,crystalline form after standing at room temperature (XRPD),[8],did not change
same,bioavailability,"[9]; oral, rats, intragastric vs intravenous, calculated based on AUC0-∞, read-out: absolute bioavailability",62.4%
same,AUC(0-inf),[9]; [11],6490 ± 2950 ng·h/mL
same,AUC(0-t),[9]; [11],6460 ± 2940 ng·h/mL
same,Cmax,[9]; [11],3980 ± 1440 ng/mL
same,half-life,[9]; [11],60.6 ± 15.6 min
same,Tmax,"[9]; po, SD rats, intragastric, single dose, n = 6, median (range in next line)",22.8 min
same,AUC(0-inf),[9]; [12],10400 ± 4500 ng·h/mL
same,AUC(0-t),[9]; [12],10400 ± 4500 ng·h/mL
same,Cmax,[9]; [12],9210 ± 2100 ng/mL
same,half-life,[9]; [12],52.8 ± 10.8 min
same,crystalline form after grinding (XRPD),[10],did not change
